Legend:
[1] = target: Glutamate [NMDA] receptor; test: Ability to inhibit MK-801 binding to NMDA receptor in the presence of 100 uM of spermidine was determined; format: protein-complex assay
[2] = target: Glutamate [NMDA] receptor; test: Ability to inhibit MK-801 binding to the NMDA receptor was determined; format: protein-complex assay

SMILES | IC50 [1] | IC50 [2]
CCCN(Cc1cc(CN(CCC)C(=N)N)cc(OC)c1)C(=N)N | 55.3 µM | 20.6 µM
CC(C)CN(Cc1cccc(CN(CC(C)C)C(=N)N)c1)C(=N)N | 112 µM | 10.8 µM
CCCN(Cc1cc(O)cc(CN(CCC)C(=N)N)c1)C(=N)N | 111 µM | 10.6 µM
COc1cc(CNC(=N)N)cc(CNC(=N)N)c1 | 5.89 µM | 1.3 µM
N=C(N)NCc1cc(CNC(=N)N)cc(NC(=O)c2ccccc2)c1 | 20.6 µM | 4.34 µM
N=C(N)NCc1cc(CNC(=N)N)cc(-c2ccccc2)c1 | 15.7 µM | 5.14 µM
C=CCN(Cc1cccc(CN(CC=C)C(=N)N)c1)C(=N)N | 29.8 µM | 3.85 µM
CCCCN(Cc1cccc(CN(CCCC)C(=N)N)c1)C(=N)N | 9.27 µM | 2.8 µM
CCCN(Cc1cccc(CN(CCC)C(=N)N)c1)C(=N)N | 12.2 µM | 0.58 µM
CCN(Cc1cccc(CN(CC)C(=N)N)c1)C(=N)N | 75.8 µM | 5.1 µM
N=C(N)NCc1cccc(CNC(=N)N)c1 | 7.09 µM | 1.19 µM
N=C(N)N(Cc1ccccc1)Cc1cccc(CN(Cc2ccccc2)C(=N)N)c1 | 2.23 µM | 3.82 µM
N=C(N)NCc1cc(CNC(=N)N)cc(OC2CCCCC2)c1 | 9.88 µM | 9.07 µM
CC(C)Oc1cc(CNC(=N)N)cc(CNC(=N)N)c1 | 10.5 µM | 2.43 µM
CCCN(Cc1cccc(CN(CCC)C(=N)N)n1)C(=N)N | 95.2 µM | 8.62 µM
NC(N)=NCCCCN=C(N)N [ARCAINE] | 80 µM | 9.13 µM
N=C(N)NCc1cccc(CNC(=N)N)n1 | 49.3 µM | 4.02 µM
